In ChEMBL document CHEMBL4340536, “Design, synthesis and structure-activity relationship study of aminopyridine derivatives as novel inhibitors of Janus kinase 2” (Bioorg Med Chem Lett, 2019):
One block for each compound: values may come before it. Activity calls are given as the source filed them. The calls are words filed in the database; no cut-off is given here.

How the values were obtained:
Homo sapiens [1] = species: Homo sapiens; test: Selectivity ratio of IC50 for human recombinant C-terminal hexahistidine tagged JAK3 JH1 catalytic domain (811 to 1124 residues) expressed in baculovirus infected Sf9 cells to IC50 for human recombinant N-terminal hexahistidine tagged JAK2 JH1 catalytic domain (835 to 1132 residues) expressed in baculovirus infected Sf9 cells
Homo sapiens [2] = species: Homo sapiens; test: (§1) Selectivity ratio of IC50 for TYK2 (unknown origin) to IC50 for human recombinant N-terminal hexahistidine tagged JAK2 JH1 catalytic domain (835 to 1132 residues) expressed in baculovirus infected Sf9 cells
Homo sapiens [3] = species: Homo sapiens; test: as §1, with “human recombinant N-terminal hexahistidine tagged JAK1 JH1 catalytic domain (854 to 1154 residues) expressed in baculovirus infected Sf9 cells” for “TYK2 (unknown origin)”
HEL = test: Antiproliferative activity against HEL cells harboring JAK2 V617F mutant measured after 3 days by CCK8 assay; type: functional, cell-based; conditions: Homo sapiens, 72 h
[4] = biological target: Non-receptor tyrosine-protein kinase TYK2 (Homo sapiens, UniProt P29597); test: Inhibition of TYK2 (unknown origin) using peptide as substrate preincubated for 10 mins followed by substrate addition by mobility shift assay
Non-receptor tyrosine-protein kinase TYK2, sequence (P29597 whole entry, the tested form may be a part): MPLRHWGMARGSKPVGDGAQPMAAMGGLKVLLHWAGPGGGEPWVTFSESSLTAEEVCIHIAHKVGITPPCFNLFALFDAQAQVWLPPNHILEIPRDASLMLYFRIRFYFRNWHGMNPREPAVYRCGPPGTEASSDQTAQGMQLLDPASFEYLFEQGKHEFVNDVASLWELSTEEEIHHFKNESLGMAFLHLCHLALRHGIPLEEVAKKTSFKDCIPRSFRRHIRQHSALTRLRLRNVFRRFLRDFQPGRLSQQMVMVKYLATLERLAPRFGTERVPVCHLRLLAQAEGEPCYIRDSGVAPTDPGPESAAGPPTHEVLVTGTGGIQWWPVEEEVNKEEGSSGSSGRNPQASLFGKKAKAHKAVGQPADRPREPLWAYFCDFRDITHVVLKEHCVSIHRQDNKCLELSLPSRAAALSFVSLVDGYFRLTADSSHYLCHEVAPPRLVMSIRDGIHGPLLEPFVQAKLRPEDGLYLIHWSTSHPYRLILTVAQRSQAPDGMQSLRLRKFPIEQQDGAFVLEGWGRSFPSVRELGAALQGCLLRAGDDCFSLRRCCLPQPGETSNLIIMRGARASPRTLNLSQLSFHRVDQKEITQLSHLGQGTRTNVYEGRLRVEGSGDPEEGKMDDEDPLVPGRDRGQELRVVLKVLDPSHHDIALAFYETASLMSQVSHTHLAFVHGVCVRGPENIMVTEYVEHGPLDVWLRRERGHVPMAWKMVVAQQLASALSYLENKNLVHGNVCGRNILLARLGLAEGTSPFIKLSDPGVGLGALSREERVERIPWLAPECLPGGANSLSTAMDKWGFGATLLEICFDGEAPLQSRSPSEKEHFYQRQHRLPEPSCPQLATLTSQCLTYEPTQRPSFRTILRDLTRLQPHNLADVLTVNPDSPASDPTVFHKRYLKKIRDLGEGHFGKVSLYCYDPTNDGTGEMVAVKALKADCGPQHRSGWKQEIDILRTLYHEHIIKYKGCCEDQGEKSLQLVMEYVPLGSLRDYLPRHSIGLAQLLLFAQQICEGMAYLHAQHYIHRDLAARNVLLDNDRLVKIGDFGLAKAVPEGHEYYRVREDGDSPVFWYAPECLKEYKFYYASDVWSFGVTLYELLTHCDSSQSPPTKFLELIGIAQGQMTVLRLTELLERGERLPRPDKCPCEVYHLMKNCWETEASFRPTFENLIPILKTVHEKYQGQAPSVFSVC

[5] = biological target: Tyrosine-protein kinase JAK1 (Homo sapiens, UniProt P23458); test: Inhibition of human recombinant N-terminal hexahistidine tagged JAK1 JH1 catalytic domain (854 to 1154 residues) expressed in baculovirus infected Sf9 cells using Tyr6 peptide as substrate incubated for 30 secs under shaking condition measured after 1 hr by Z'-LYTE assay
Tyrosine-protein kinase JAK1, sequence (P23458 whole entry, the tested form may be a part): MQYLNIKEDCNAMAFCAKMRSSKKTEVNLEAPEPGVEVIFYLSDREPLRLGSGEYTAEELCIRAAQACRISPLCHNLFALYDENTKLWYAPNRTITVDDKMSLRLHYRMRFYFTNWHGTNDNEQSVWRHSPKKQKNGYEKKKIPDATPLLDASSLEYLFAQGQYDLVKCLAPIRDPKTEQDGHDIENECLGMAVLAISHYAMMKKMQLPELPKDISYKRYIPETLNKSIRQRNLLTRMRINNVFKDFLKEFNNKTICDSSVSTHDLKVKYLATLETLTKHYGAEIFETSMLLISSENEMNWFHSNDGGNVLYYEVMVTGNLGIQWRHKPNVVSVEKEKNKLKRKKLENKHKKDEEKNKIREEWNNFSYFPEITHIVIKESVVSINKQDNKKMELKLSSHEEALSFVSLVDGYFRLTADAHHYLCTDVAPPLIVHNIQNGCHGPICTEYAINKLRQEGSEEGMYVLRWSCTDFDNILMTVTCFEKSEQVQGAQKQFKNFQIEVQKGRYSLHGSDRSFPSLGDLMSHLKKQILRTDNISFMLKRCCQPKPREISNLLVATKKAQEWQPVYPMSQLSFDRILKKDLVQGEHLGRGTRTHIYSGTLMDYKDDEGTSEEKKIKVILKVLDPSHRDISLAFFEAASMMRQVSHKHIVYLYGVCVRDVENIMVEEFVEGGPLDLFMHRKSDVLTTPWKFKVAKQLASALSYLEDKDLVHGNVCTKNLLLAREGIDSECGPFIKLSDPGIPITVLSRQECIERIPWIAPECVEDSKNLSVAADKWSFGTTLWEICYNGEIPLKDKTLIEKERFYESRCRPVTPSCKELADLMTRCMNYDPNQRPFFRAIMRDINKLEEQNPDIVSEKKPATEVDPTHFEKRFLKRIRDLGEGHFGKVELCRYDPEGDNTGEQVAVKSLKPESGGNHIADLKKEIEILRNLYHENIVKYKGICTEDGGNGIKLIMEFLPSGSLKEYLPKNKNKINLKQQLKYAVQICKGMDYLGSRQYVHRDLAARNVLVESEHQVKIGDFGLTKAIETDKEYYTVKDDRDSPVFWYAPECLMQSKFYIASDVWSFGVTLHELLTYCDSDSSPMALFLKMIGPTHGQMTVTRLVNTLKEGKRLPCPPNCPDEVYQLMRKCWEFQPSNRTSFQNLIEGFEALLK

[6] = biological target: T1, Tyrosine-protein kinase JAK3 (Homo sapiens, UniProt P52333); test: Inhibition of human recombinant C-terminal hexahistidine tagged JAK3 JH1 catalytic domain (811 to 1124 residues) expressed in baculovirus infected Sf9 cells using Tyr6 peptide as substrate incubated for 30 secs under shaking condition measured after 1 hr by Z'-LYTE assay
T1 sequence (P52333 whole entry): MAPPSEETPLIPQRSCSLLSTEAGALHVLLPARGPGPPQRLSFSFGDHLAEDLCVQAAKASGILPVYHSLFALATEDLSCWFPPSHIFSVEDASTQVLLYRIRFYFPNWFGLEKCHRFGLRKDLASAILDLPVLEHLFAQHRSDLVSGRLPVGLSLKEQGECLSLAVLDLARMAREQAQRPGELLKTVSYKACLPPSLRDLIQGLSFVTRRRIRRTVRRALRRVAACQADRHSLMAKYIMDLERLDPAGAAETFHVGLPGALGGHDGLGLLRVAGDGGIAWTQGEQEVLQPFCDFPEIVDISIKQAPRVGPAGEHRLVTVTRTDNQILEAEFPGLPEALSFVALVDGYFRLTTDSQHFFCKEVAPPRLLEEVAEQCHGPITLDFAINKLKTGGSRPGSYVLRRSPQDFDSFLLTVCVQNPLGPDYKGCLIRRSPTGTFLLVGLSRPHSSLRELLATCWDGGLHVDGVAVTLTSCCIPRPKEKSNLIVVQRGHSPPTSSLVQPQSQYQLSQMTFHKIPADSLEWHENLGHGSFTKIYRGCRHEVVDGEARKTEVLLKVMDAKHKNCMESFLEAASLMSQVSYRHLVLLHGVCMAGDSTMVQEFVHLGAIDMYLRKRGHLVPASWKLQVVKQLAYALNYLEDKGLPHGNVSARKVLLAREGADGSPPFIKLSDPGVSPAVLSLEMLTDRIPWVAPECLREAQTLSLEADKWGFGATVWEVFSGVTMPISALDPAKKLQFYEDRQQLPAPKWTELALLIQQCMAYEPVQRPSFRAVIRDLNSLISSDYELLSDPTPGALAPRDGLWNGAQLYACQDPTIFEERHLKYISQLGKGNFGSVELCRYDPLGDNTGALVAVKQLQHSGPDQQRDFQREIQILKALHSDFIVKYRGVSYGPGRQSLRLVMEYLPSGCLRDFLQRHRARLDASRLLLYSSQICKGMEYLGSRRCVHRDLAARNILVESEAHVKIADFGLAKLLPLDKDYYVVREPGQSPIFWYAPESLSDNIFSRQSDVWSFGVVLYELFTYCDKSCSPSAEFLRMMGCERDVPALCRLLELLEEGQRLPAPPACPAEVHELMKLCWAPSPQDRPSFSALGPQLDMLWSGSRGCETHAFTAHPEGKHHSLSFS

[7] = biological target: T2, Tyrosine-protein kinase JAK2 (Homo sapiens, UniProt O60674); test: Inhibition of human recombinant N-terminal hexahistidine tagged JAK2 JH1 catalytic domain (835 to 1132 residues) expressed in baculovirus infected Sf9 cells using Tyr6 peptide as substrate incubated for 30 secs under shaking condition measured after 1 hr by Z'-LYTE assay
T2 sequence (O60674 whole entry, the tested form may be a part): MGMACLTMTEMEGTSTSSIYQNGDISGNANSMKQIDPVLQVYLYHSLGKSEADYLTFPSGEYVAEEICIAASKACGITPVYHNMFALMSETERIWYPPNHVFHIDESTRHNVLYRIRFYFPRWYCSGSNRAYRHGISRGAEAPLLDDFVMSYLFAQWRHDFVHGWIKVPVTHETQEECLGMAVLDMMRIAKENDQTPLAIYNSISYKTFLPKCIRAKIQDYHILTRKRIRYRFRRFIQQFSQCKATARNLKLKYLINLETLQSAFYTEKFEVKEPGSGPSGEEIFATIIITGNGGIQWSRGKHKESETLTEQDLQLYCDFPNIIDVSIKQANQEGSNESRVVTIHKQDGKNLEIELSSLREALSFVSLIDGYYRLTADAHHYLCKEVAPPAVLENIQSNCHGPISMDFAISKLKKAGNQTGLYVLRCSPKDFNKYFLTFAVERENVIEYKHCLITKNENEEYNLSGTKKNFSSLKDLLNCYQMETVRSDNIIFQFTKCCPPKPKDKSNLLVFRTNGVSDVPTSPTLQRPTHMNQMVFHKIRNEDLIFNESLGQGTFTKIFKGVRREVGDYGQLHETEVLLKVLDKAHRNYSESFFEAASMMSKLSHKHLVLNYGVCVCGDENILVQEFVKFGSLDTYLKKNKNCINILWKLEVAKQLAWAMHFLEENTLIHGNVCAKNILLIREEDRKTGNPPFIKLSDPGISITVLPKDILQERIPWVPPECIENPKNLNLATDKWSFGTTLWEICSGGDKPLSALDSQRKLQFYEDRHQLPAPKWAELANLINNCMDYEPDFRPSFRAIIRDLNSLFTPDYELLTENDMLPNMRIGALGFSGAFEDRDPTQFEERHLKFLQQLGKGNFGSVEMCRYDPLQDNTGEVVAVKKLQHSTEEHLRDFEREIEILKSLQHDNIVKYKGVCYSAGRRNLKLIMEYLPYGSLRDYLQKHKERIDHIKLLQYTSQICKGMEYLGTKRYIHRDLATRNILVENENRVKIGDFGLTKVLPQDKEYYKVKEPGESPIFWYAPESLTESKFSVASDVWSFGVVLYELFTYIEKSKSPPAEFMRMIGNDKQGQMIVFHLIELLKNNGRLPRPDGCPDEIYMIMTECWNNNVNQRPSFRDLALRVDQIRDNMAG

Rattus norvegicus [8] = test: Antiarthritic activity in po dosed incomplete Freund's adjuvant-induced Wistar rat arthritic model assessed as reduction in foot swelling administered daily for 28 days starting from 8 days post-immunization measured daily during compound dosing; type: functional, organism-based
Rattus norvegicus [9] = test: Antiarthritic activity in incomplete Freund's adjuvant-induced Wistar rat arthritic model assessed as decrease in arthritis swelling score at 50 mg/kg, po administered daily for 28 days starting from 8 days post-immunization measured daily during compound dosing; type: functional, organism-based
[10] = Toxicity in incomplete Freund's adjuvant-induced Wistar rat arthritic model assessed as effect on body weight growth at 10 to 50 mg/kg, po administered daily for 28 days starting from 8 days post-immunization measured every 3 days during compound dosing; type: organism-based; conditions: in vivo
Rattus norvegicus [11] = test: Antiarthritic activity in incomplete Freund's adjuvant-induced Wistar rat arthritic model assessed as decrease in arthritic incidences at 10 to 50 mg/kg, po administered daily for 28 days starting from 8 days post-immunization measured daily during compound dosing; type: functional, organism-based
Rattus norvegicus [12] = test: Antiarthritic activity in incomplete Freund's adjuvant-induced arthritis model Wistar rat at 0.3 mg/kg, po administered daily for 28 days starting from 8 days post-immunization measured daily during compound; type: functional, organism-based
[13] = Toxicity in incomplete Freund's adjuvant-induced Wistar rat arthritic model assessed as effect on body weight growth at 0.3 mg/kg, po administered daily for 28 days starting from 8 days post-immunization measured every 3 days during compound dosing; type: organism-based; conditions: in vivo
[14] = biological target: T2, Tyrosine-protein kinase JAK2; test: Inhibition of human recombinant N-terminal hexahistidine tagged JAK2 JH1 catalytic domain (835 to 1132 residues) expressed in baculovirus infected Sf9 cells at 1 uM using Tyr6 peptide as substrate incubated for 30 secs under shaking condition measured after 1 hr by Z'-LYTE assay relative to control
[15] = biological target: T2, Tyrosine-protein kinase JAK2; conditions: Sf9

Structure (SMILES): COc1ccc(F)cc1C(C)Oc1cc(-c2cnn(C3CCNCC3)c2)cnc1N (stereo not drawn)
Ratio IC50 (Homo sapiens [1]): 528 | Ratio IC50 (Homo sapiens [2]): 264 | Ratio IC50 (Homo sapiens [3]): 598 | IC50 (HEL): 4.19 µM | IC50 [4]: 794 nM | IC50 [5]: 1800 nM | IC50 [6]: 1580 nM

Structure (SMILES): CC(Oc1cc(-c2ccccc2)cnc1N)c1cc(F)ccc1Cl (stereo not drawn)
IC50 (HEL): > 100 µM

Structure (SMILES): CCC(Oc1cc(-c2cnn(C3CCNCC3)c2)cnc1N)c1c(Cl)ccc(F)c1Cl (stereo not drawn)
IC50 (HEL): 9.98 µM

Structure (SMILES): CC(Oc1cc(-c2cnn(C3CCNCC3)c2)cnc1N)c1ccccc1 (stereo not drawn)
IC50 (HEL): 29.6 µM | IC50 [7]: 215 nM

Structure (SMILES): CC(Nc1cc(-c2cnn(C3CCNCC3)c2)cnc1N)c1c(Cl)ccc(F)c1Cl (stereo not drawn)
IC50 (HEL): 10.8 µM | IC50 [7]: 126 nM

Structure (SMILES): CC(Oc1cc(-c2ccc(N3CCNCC3)cc2)cnc1N)c1cc(F)ccc1Cl (stereo not drawn)
IC50 (HEL): 19.7 µM

Structure (SMILES): N#CC[C@H](C1CCCC1)n1cc(-c2ncnc3[nH]ccc23)cn1 [RUXOLITINIB]
IC50 (HEL): 7.64 µM

Structure (SMILES): CC(Oc1cc(-c2cnn(C3CCNCC3)c2)cnc1N)c1cc(F)ccc1Cl (stereo not drawn)
Activity (Rattus norvegicus [8]): Dose-dependent effect | Activity (Rattus norvegicus [9]): Active | Ratio IC50 (Homo sapiens [1]): 86 | Ratio IC50 (Homo sapiens [2]): 216 | Ratio IC50 (Homo sapiens [3]): 110 | IC50 (HEL): 15 µM | IC50 [7]: 6 nM | Activity [10]: Non-Toxic | IC50 [4]: 1300 nM | IC50 [5]: 660 nM | IC50 [6]: 513 nM | Activity (Rattus norvegicus [11]): Active

Structure (SMILES): CC(Oc1cc(-c2cnn(C3CCNCC3)c2)cnc1N)c1c(Cl)ccc(F)c1Cl (stereo not drawn)
IC50 (HEL): 6.58 µM

Structure (SMILES): CN(Cc1cnc2nc(N)nc(N)c2n1)c1ccc(C(=O)N[C@@H](CCC(=O)O)C(=O)O)cc1 [METHOTREXATE]
Activity (Rattus norvegicus [12]): Active | Activity [13]: Toxic

Structure (SMILES): CC(Oc1cc(-c2cnn(C3CCNCC3)c2)cnc1N)C1CCCCC1 (stereo not drawn)
IC50 (HEL): 20.9 µM

Structure (SMILES): CC(Oc1cc(-c2cccc(C3CCNCC3)c2)cnc1N)c1cc(F)ccc1Cl (stereo not drawn)
IC50 (HEL): 6.2 µM

Structure (SMILES): CC(Oc1cc(-c2ccc(C3CCNCC3)cc2)cnc1N)c1cc(F)ccc1Cl (stereo not drawn)
IC50 (HEL): 16 µM

Structure (SMILES): CC(Oc1cc(-c2cnn(C3CCNCC3)c2)cnc1N)c1c(Cl)cccc1Cl (stereo not drawn)
IC50 (HEL): 28.4 µM

Second part, led by results:

IC50 [7]: 3050 nM
Structure (SMILES): CC(Oc1cc(-c2cccnc2)cnc1N)c1c(Cl)ccc(F)c1Cl (stereo not drawn)
IC50 (HEL): 20.1 µM

IC50 [4]: 1450 nM | IC50 [5]: 82 nM | IC50 [6]: 965 nM
Structure (SMILES): CC(Oc1cc(-c2cn[nH]c2)cnc1N)c1cc(F)ccc1Cl (stereo not drawn)
Ratio IC50 (Homo sapiens [1]): 60 | Ratio IC50 (Homo sapiens [2]): 91 | Ratio IC50 (Homo sapiens [3]): 5 | IC50 (HEL): 4.85 µM

IC50 [4]: 2530 nM | IC50 [5]: 120 nM | IC50 [6]: 2790 nM
Structure (SMILES): CC(Oc1cc(-c2cccc(N3CCNCC3)c2)cnc1N)c1cc(F)ccc1Cl (stereo not drawn)
Ratio IC50 (Homo sapiens [1]): 107 | Ratio IC50 (Homo sapiens [2]): 94 | Ratio IC50 (Homo sapiens [3]): 4 | IC50 (HEL): 7.2 µM

IC50 [7]: 119 nM
Structure (SMILES): CC(Oc1cc(-c2cncc(N3CCNCC3)c2)cnc1N)c1c(Cl)ccc(F)c1Cl (stereo not drawn)
IC50 (HEL): 7.45 µM

IC50 [7]: 26 nM | IC50 [4]: 774 nM | IC50 [5]: 1220 nM | IC50 [6]: 1760 nM
Structure (SMILES): COc1ccc(F)c(Cl)c1C(C)Oc1cc(-c2cnn(C3CCNCC3)c2)cnc1N (stereo not drawn)
Ratio IC50 (Homo sapiens [1]): 66 | Ratio IC50 (Homo sapiens [2]): 30 | Ratio IC50 (Homo sapiens [3]): 46 | IC50 (HEL): 13.6 µM

IC50 [7]: 804 nM
Structure (SMILES): CC(Oc1cc(-c2ccc(N3CCNCC3)nc2)cnc1N)c1c(Cl)ccc(F)c1Cl (stereo not drawn)
IC50 (HEL): 7.76 µM

IC50 [7]: 65 nM
Structure (SMILES): CC(Oc1cc(-c2cnn(C3CCOCC3)c2)cnc1N)c1c(Cl)ccc(F)c1Cl (stereo not drawn)
IC50 (HEL): > 100 µM

inhibition [14]: 7.15%
Structure (SMILES): CC(Oc1cc(-c2ccccc2)cnc1N)c1c(Cl)ccc(F)c1Cl (stereo not drawn)
IC50 (HEL): > 100 µM

ΔTm [15]: 7.88 °C
Structure (SMILES): C[C@@H](Oc1cc(-c2cnn(C3CCNCC3)c2)cnc1N)c1c(Cl)ccc(F)c1Cl [CRIZOTINIB]
IC50 (HEL): 4.73 µM
